According to US10092537B2, “Use for PAI-1 inhibitor” (RENASCIENCE CO., LTD., priority 2013, dated 2018):

What was measured:
hematopoietic stem cells [1] = assay: Frequency and absolute number of hematopoietic stem cells after bone-marrow transplantation (Experimental Example 8 (1)); assay type: in vivo, mice; conditions: 1 and 3 weeks after bone-marrow transplantation
Procedure: In accordance with the procedure of Experimental Example 7 (1), bone marrow was transplanted, and tPA or compound a was administered in the same manner as in Experimental Example 7. Physiological saline was administered to a control group. 1 and 3 weeks after bone-marrow transplantation, 12 mice of each group were measured for the number of bone-marrow mononucleic cells (BM MNC), the frequency and absolute number of Lin-SLAM cells, and the frequency and absolute number of LSK-CD34 negative cells.

CML cells = assay: Chronic myelogenous leukemia model mice, compound a alone, imatinib, combination (Experimental Example 16); assay type: in vivo; conditions: day 10 to day 16
Procedure: (§1) Group 1: placebo group (physiological saline was administered via gavage)
Group 2: compound a group (compound a [100 mg/kg/day] was administered via gavage)
Group 3: imatinib group (imatinib [150 mg/kg/day] was administered via gavage)
Group 4: imatinib+compound a group (imatinib [150 mg/kg/day] and compound a [100 mg/kg/day] were administered via gavage)
10 days after (day 10) the day on which CML cells were intravenously inoculated (day 0), administration of test drugs to the groups was started. The placebo group, the compound a group, and the imatinib group were administered the respective test drugs once a day from day 10 to day 16 (7 doses in total). The imatinib+compound a group was administered imatinib once a day from day 10 to day 16 (7 doses in total), and also administered compound a once a day from day 10 to day 16 (7 doses in total).

hematopoietic stem cells [2] = assay: Hematopoietic recovery after total-body radiation (9Gy) and bone-marrow transplantation (Experimental Example 4); assay type: in vivo, C57BI6/J mice
Procedure: Specifically, C57BI6/J mice (recipient), which were wild-type inbred strain mice, were treated with total-body radiation (9Gy), and four hours later, bone-marrow cells were transplanted into the mice. Concurrently with the transplantation, compound a was administered to the mice as a test compound via oral gavage (dosage 100 mg/kg), and compound a was daily administered orally for 5 consecutive days (administered group).
The survival rate of the mice after bone-marrow transplantation was tracked over time (each group: n=15).
Bone-marrow cells collected from the mice (administered group and control group) 7 days after bone-marrow transplantation were measured for the presence of Lin-SLAM cells with a flow cytometric analyzer (see FIG. 5A). Each test was independently conducted (each group: n=6).
The proportion (%) of Lin-SLAM cells in the whole bone marrow, the total number of Lin-SLAM cells in the bone marrow, the proportion (%) of LSK-CD34 negative cells in the bone marrow, and the total number of LSK-CD34 negative cells in the bone marrow were measured.
The bone-marrow cells collected from the mice (administered group, control group) 7 days after bone-marrow transplantation were measured for the plasminogen (Plg) mRNA expression level, tPA mRNA expression level, and PAI-1 mRNA expression level.
Bone marrow was collected from the mice (administered group and control group) 13 weeks after bone-marrow transplantation, and the following was measured: the total number of whole bone marrow (FIG. 7A), the proportion (%) of LSK-CD34 negative cells in the whole bone marrow (FIG. 7B), the total number of CD34(−)KSL cells in the whole bone marrow (FIG. 7C), the proportion (%) of Lin-SLAM cells in the whole bone marrow (FIG. 7D), the total number of Lin-SLAM cells in the whole bone marrow (FIG. 7E), the proportion (%) of bone marrow differentiated cells (CD45.1/Mac1/Gr1 cell) in the whole bone marrow (FIG. 7F), the total number of bone marrow differentiated cells (CD45.1/Mac1/Gr1 cell) in the whole bone marrow (FIG. 7G), the proportion (%) of B-cell lymphoid differentiated cells (CD45.1/B 220 cell) in the whole bone marrow (FIG. 7H), and the total number of B cell lymphoid differentiated cells (CD45.1/B 220 cell) in the whole bone marrow (FIG. 7I). The results are shown in the above-stated figures.

human PAI-1 = human PAI-1 (Homo sapiens, UniProt P05121); assay: Measurement of PAI-1 inhibitory activity of compound group 1 (t-PA, S-2288 chromogenic substrate); conditions: read-out: PAI-1 activity %
Procedure: Subsequently, human-derived tissue plasminogen activator (t-PA) (manufactured by American Diagnostica, Inc. (USA); the same applies hereinafter) adjusted to 0.35 pmol/μL was added thereto, and the mixture was further incubated at 37° C. for 15 minutes.

Her2-A20 cell = Her2-A20 cell subcutaneous tumor, Herceptin and compound c (Experimental Example 19); assay type: in vivo, BALB/c-nude mice; conditions: Herceptin 20 mg/kg i.p. (2 doses) + compound c 10 mg/kg/day oral; 15 days after administration
Procedure: At first, A20 cell line (mouse B lymphoma) was transfected with human Her2 cDNA using MIGR1 vector to prepare transformed cells (hereinafter, “Her2-A20 cell”). The Her2-A20 cells (5×10^6) were subcutaneously inoculated into BALB/c-nude mice. […] Compound c or physiological saline was administered once a day, 5 doses in total (day 0 to day 4). […] Compound c or physiological saline was administered once a day, 7 doses in total (day 7 to day 13).

[3] = test system: CML cells (32Dp210-GFP cells); assay: Chronic myelogenous leukemia model mice, imatinib and compound c (Experimental Example 12); assay type: in vivo
Procedure: Chronic myelogenous leukemia model mice prepared in the same manner as in Experimental Example 11 were divided into the following 3 groups (each group: n=10), and the groups were administered respective test drugs in accordance with the protocol shown in FIG. 15A.
as §1
Group 2: imatinib group (imatinib [150 mg/kg/day] was administered via gavage)
Group 3: imatinib+compound c group (imatinib [150 mg/kg/day] and compound c [10 mg/kg/day] were administered via gavage)
8 days (day 8) after the day on which CML cells (32Dp210-GFP cells) were intravenously inoculated (day 0), administration of the test drugs to the groups was started. The placebo group and the imatinib group were administered the respective test drugs once a day from day 8 to day 14 (7 doses in total). The imatinib+compound c group was administered imatinib once a day from day 8 to day 14 (7 doses in total), and also administered compound c once a day from day 8 to day 14 (7 doses in total).

[4] = 100 mg/kg oral gavage, 5 consecutive days, days 2, 7, 21 after bone-marrow transplantation, versus vehicle control
[5] = 100 mg/kg oral, 7 days after bone-marrow transplantation

human PAI-1, sequence (P05121 24-402): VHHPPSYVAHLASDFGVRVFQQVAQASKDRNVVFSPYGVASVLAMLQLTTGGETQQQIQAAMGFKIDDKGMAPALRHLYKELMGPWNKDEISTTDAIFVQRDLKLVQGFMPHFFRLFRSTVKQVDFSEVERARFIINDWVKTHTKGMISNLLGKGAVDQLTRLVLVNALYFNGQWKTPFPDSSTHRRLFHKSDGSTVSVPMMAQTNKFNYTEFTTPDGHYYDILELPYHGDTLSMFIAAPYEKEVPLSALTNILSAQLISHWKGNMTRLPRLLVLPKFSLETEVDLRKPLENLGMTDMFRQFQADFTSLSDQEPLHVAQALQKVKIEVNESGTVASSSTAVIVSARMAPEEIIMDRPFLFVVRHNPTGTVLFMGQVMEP

SMILES | LSK-CD34 negative cells (frequency and absolute number) (hematopoietic stem cells [1]) | frequency and absolute number of Lin-SLAM cells (hematopoietic stem cells [1]) | number of bone-marrow mononucleic cells (hematopoietic stem cells [1]; compared with control group) | survival (CML cells; compound a 100 mg/kg/day alone, all of the subject mice, as placebo) | survival rate on day 50 (CML cells; imatinib 150 mg/kg/day + compound a 100 mg/kg/day via gavage) | cKitL level in plasma (hematopoietic stem cells [2]; [4]) | plg level in plasma (hematopoietic stem cells [2]; [4]) | tPA level in plasma (hematopoietic stem cells [2]; [4]) | total MMP-9 level in plasma (hematopoietic stem cells [2]; [4]) | white blood cell count in the peripheral blood (hematopoietic stem cells [2]; [4]) | survival rate of the mice after bone-marrow transplantation (hematopoietic stem cells [2]; 100 mg/kg oral, concurrently with transplantation and 5 consecutive days, versus control group) | whole bone marrow cell number; proportion and total number of LSK-CD34 negative cells, Lin-SLAM cells, bone marrow differentiated cells, B-cell lymphoid differentiated cells (hematopoietic stem cells [2]; 100 mg/kg oral, 13 weeks after bone-marrow transplantation, versus vehicle control) | frequency of hematopoietic stem cells (Lin-SLAM cells, LSK-CD34 negative cells in bone marrow) (hematopoietic stem cells [2]; [5]) | mRNA expression of plasminogen, tissue-type plasminogen activator, and plasminogen activator inhibitor 1 in bone marrow (hematopoietic stem cells [2]; [5]) | activity at 20 µM (human PAI-1) | activity at 50 µM (human PAI-1) | tumor volume versus other groups (Her2-A20 cell) | survival rate on day 40 ([3]; imatinib 150 mg/kg/day + compound c 10 mg/kg/day via gavage, day 8 to day 14) | median survival period ([3]; imatinib 150 mg/kg/day + compound c 10 mg/kg/day, placebo 15.5 days)
O=C(COCC(=O)N1CCN(C(c2ccccc2)c2ccccc2)CC1)Nc1ccc(Cl)cc1C(=O)[O-].[Na+] [Example 30 (compound group 2), 2-(2-(2-(4-benzhydrylpiperazin-1-yl)-2-oxoethoxy)acetamido)-5-chlorobenzoic acid sodium salt] | markedly increased | markedly increased | significantly increased | died during the period from day 10 to day 20 | 60% | significantly higher | significantly higher | significantly higher | significantly higher | significantly higher | significantly higher | significantly higher | increases | induces | – | – | – | – | –
O=C(Nc1ccc(Cl)cc1C(=O)O)c1cccc(-c2ccccc2)c1 [Example 4, 2-[(biphenyl-3-ylcarbonyl)amino]-5-chlorobenzoic acid] | – | – | – | – | – | – | – | – | – | – | – | – | – | – | 47.7% | 7.6% | significantly smaller | 70% | 40 days
